Experimental findings from US7998985B2, “1,5-diphenyl-3-pyridinylamino-1,5-dihydropyrrolidin-2-one as CB1 receptor modulator” (Eli Lilly and Company, priority 2006, dated 2011) are described below.

Broadly, the Kb is the affinity of an antagonist, worked out from how it opposes an agonist. As usually defined, the EC50 is the concentration needed to bring the measured effect to its halfway point.

The subject of assay [1] is alcohol-preferring (P) rats. Kind of assay: 12-hour ethanol consumption in alcohol-preferring rats (P rats). The class given is in vivo, rat. The following applies: female P rats, 15% (v/v) ethanol, continuous free access; Example 2 given p.o. From the text:
Evaluate Example 2 for its ability to reduce consumption of ethanol in rats selectively bred for high oral ethanol intake (P rats). In addition, study the effects of Example 2 under conditions in which effects of the compound on motivation or the control of behavior by ethanol could be assessed.
Methods: Study the effects of Example 2 on female, alcohol-preferring (P) rats on alcohol consumption under a continuous free access paradigm. For comparative purposes test the standard opioid antagonist naltrexone. Monitor voluntary consumption of 15% (v/v) ethanol. Suspend Example 2 in vehicle (1% CMC, 0.5% SLS, 0.08% povidone, 0.05% Dow Corning antifoam 1510 US) and give p.o. 3 hours prior to the onset of the dark cycle. In addition, measure locomotor activity via infrared sensor.

Assay [2] deals with T1, human CB2 receptor (Homo sapiens, UniProt P34972).
T1 construct: purchased Applied Cell Sciences, Gaithersburg, Md; PerkinElmer Life Sciences, Boston, Mass; host or cells: Sf9 insect cells (recombinant expression), membranes
Kind of assay: Antibody-capture SPA GTP-γ-35S binding, antagonist/inverse agonist mode, human CB2 (Sf9 membranes). The assay is classed as biochemical. To be noted: Human CB2 (Sf9 cells) membranes, Table 1.

Assay [3] addresses T2, hCB1 (Homo sapiens, UniProt P21554). Kind of assay: Antibody-capture SPA GTP-γ-35S binding, antagonist/inverse agonist mode, human CB1 (CHO membranes). To be noted: Human CB1 (CHO cells) membranes; vs saturating methanandamide; mean ± SEM; read-out: Inverse Agonist Potency (Kb). The assay is classed as biochemical. On the procedure:
Antibody-Capture SPA GTP-γ-^35S Binding
In cell membranes expressing human or rat CB1 or CB2 receptor, test (3R,5R)-3-[1-methyl-1-(6-trifluoromethyl-pyridin-3-yl)-ethylamino]-1-(4-trifluoromethyl-phenyl)-5-(3-trifluoromethoxy-phenyl)-pyrrolidin-2-one 4-methylbenzenesulfonate (referred to as “Example 2”) for its antagonist/inverse agonist functional GTP-binding. In a 96 well format using a modified antibody capture technique (DeLapp et al., 1999), measure GTP-γ^35S binding. Briefly incubate for 30 minutes at room temperature the GTP-binding assay buffer (20 mM Hepes, 100 mM NaCl, 5 mM MgCl2, pH 7.4), the CHO or Sf9 cell membranes expressing CB1 or CB2, (Applied Cell Sciences, Gaithersburg, Md.; PerkinElmer Life Sciences, Boston, Mass.; prepare membranes as previously described (DeLapp et al., 1999)), Example 2 and the 500 pM GTP-γ-^35S (PerkinElmer Life Sciences, Boston, Mass.). Perform antagonist dose responses in the presence of a saturating dose of a full agonist (methanandamide). […]
To analyze data, subtract background from all wells. […] Determine Kb values using a modification of the Cheng-Prusoff relationship: Kb=IC50/(1+[agonist]/EC50) where IC50 is determined from a four parameter fit of displacement curves, [agonist]=EC50 of full agonist, and EC50 is determined from a four parameter fit of a full agonist concentration response curve (Cheng and Prusoff 1973). […]
In general terms: GTPγS is a poorly hydrolysed GTP analogue; its binding reports G protein activation.

In assay [4] the target is T2, hCB1. Put plainly: GTP-γ-35S binding, agonist mode, human CB1 (Sf9 membranes). The class given is biochemical. On the set-up: purchased Applied Cell Sciences, Gaithersburg, Md; PerkinElmer Life Sciences, Boston, Mass; host or cells: Sf9 insect cells (recombinant expression), membranes.
Assay [5] concerns female Sprague-Dawley rats. Kind of assay: Atypical antipsychotic (olanzapine) weight gain model. The assay is classed as in vivo, rat. To be noted: 0.3 and 1 mg/kg Example 2 plus olanzapine, days 15-28. From the text: Methods: Maintain adult lean, female Sprague-Dawley rats ad libitum on normal rodent chow Purina LabDiet 5001 (12.3% fat) and water. […] Follow food intake, monitor body weight and change in fat mass over a two week treatment.

For assay [6], the system named is male Sprague-Dawley rats. Kind of assay: Microdialysis of monoamines and metabolites in prefrontal cortex. The class given is in vivo. To be noted: rat prefrontal cortex microdialysate; doses as low as 1 mg/kg, p.o. On the procedure:
Methods: Implant male Sprague-Dawley rats (260-300 g, Taconic Farms, Germantown, N.Y.) with a cannula (BAS, West Lafayette, Ind.) in the prefrontal cortex (PFC) 5-7 days before the experiment. Insert a concentric type probe with a 4 mm membrane tip extending below the cannula through the cannula about 16 hours before the experiment began and collect the microdialysate from prefrontal cortex and analyze for monoamines and their metabolites. Calculate all microdialysis data as percent change from dialysate basal concentrations with 100% defined as the average of the final three drug pre-injection values and each group having 5-6 rats. Analyze data with ANOVA and follow by a post-hoc Bonferroni test.

Assay [7] has as its system alcohol-preferring (P) rats. Kind of assay: Progressive ratio responding maintained by ethanol. The following applies: female P rats, progressive ratio schedule. The class given is in vivo, rat. The source says:
Assess the ability of Example 2 to reduce the motivational drive controlling ethanol intake.
Methods: Study female alcohol-preferring (P) rats under a progressive ratio schedule in which responding produces 15% ethanol (v/v). Under the progressive ratio schedule, the response requirement for ethanol delivery increases from 1 to 2 and then increments by 2 after 3 ethanol presentations.

T2 sequence (P21554 whole entry): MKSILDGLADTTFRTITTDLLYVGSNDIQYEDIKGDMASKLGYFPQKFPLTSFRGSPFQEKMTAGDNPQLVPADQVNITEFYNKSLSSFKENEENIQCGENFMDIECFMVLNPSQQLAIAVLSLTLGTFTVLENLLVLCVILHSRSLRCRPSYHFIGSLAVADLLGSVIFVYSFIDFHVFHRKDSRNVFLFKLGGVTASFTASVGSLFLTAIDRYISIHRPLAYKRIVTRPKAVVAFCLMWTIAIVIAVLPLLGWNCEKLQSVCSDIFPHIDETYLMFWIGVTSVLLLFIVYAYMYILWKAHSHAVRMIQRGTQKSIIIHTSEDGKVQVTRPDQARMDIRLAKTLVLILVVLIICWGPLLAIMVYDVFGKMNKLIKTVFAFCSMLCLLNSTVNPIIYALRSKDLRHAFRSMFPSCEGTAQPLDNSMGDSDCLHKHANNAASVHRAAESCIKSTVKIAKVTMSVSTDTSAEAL
T1 sequence (P34972 whole entry): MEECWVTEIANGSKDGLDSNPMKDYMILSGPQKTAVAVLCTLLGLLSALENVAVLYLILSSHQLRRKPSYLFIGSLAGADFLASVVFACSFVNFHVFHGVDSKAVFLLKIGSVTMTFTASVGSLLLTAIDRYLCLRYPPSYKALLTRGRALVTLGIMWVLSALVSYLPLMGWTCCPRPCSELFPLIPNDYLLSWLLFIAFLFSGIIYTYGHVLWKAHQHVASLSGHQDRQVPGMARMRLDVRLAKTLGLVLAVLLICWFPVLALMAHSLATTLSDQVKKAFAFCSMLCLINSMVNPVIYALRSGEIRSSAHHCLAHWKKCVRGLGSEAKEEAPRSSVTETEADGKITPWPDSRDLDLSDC

`CC(C)(N[C@@H]1C[C@H](c2cccc(OC(F)(F)F)c2)N(c2ccc(C(F)(F)F)cc2)C1=O)c1ccc(C(F)(F)F)nc1.Cc1ccc(S(=O)(=O)O)cc1` [Example 2, (3R,5R)-3-[1-methyl-1-(6-trifluoromethyl-pyridin-3-yl)-ethylamino]-1-(4-trifluoromethyl-phenyl)-5-(3-trifluoromethoxy-phenyl)-pyrrolidin-2-one, 4-methylbenzenesulfonate (1:1)]: the consumption of ethanol entry in assay [1] is recorded as “decreased in a dose-dependent manner”. In addition, in assay [2], the “Inverse Agonist Potency (Kb, nM)” value is reported as “No measurable activity”. In addition, the Kb in assay [3] turned out to be 0.71 ± 0.26 nM. In addition, in assay [4] (normalised to full agonist methanandamide), the “Agonist Efficacy %” value is recorded as −47.9 ± 4.7%. Further, the EC50 in assay [4] (read-out: Agonist Potency EC50) is 0.58 ± 0.05 nM. Besides, in assay [5], the “fat free mass under olanzapine” value is reported as “no changes in fat free mass” and the “fat mass gain under olanzapine” value is recorded as “significant reduction in fat mass gain”. In addition, the “cortical monoamine and metabolite levels” value in assay [6] is “Increase rat cortical monoamine and metabolite levels”. Also, in assay [7] (15% ethanol, dose-dependently), the “ethanol-seeking behavior and ethanol consumed” value is “Reduce ethanol-seeking behavior and the consumption of ethanol consumed”. The reduction of breakpoint entry in assay [7] (F(4,20)=4.52, p=0.009) is recorded as “in a dose-dependent manner”.
